“Also recorded” adds a separate entry of the source. Residues, ends and D or L forms follow the SMILES beside them. *: point of attachment. Cbz = O=C(OCc1ccccc1)*; CH2F = FC*
Tests used:
[1] = system: Jurkat A3 permanent human T-cell line; experiment: Jurkat apoptosis assay (Caspase 3/7 activity); format: cell-based; conditions: Jurkat cells, 250 ng/ml CD95L-T4, 30 min preincubation
[2] = system: GSK3β; experiment: Phosphorylation (inhibition) of GSK3β, Western Blot; format: cell-based, human; conditions: T98G cells, pre-treatment before CD95 stimulation
Protocol: The MAPK inhibitor, PD98059 (25 μM), the PI3K inhibitor […] (25 μM) and the pancaspase inhibitor zVAD-fmk (40 μM) were purchased from Calbiochem. The ILK inhibitor (20 μM) was kindly provided from S. Dedhar. Cells were preincubated with inhibitors 30 minutes (LY 290059 and zVAD-fmk) prior to treatment with either CD95L-T4 or αApo-1. Generation of Leucinezipper-CD95L (LZCD95L) was performed as previously described^41. The blocking agents (zVAD-fmk, PD98059, LY 290059 and KP-SD1) were given 30 minutes before treatment with LZ-CD95L or αApo-1. Cells were lysed for further biochemical analysis. Protein extraction and immunoblotting was performed as previously described^41.

[3] = system: T98G cells; experiment: Migration assay (collagen-coated transwell / two dimensional migration assay); format: cell-based, human; conditions: T98G cells stimulated with α-Apo-1 (2 μg/ml) or LZ-CD95L (5 ng/ml)
Protocol: Migration of the glioma cells in vitro was measured by the migration through Collagen 1-coated (Chemicon) transwell inserts (Falcon). 5×10^4 cells were plated in 200 μl medium onto collagen-coated (50 μg/ml) transwell inserts with 8 μm pore size. Cells were either γ-irradiated before plating or treated after plating with α-Apo1 (2 μg/ml or 0.1 μg/ml+ProteinA for cross linking), LZ-CD95L (5 ng/ml), Nok1 (50 ng)/LZ-CD95L (5 ng/ml), Nok1 (50 ng) LZ-Supernatant (SN, 5 ng/ml), CD95L (10 ng/ml) and CD95L-T34. Preferably 24 h after plating the cells were starved with basal DMEM for additional 24 h before they were treated. The number of completely migrated cells was counted at 12 h, 24 h and 36 h after treatment. In every experiment triplicates were counted for each treatment.
2.5×10^5 cells were plated onto 6 cm culture dishes 12 h prior to irradiation. […]
Knockdown experiments were performed by transient transfection with Lipofectamine 2000™ (Invitrogen Life Technologies) following the instruction manual. […] After transient transfection with the different siRNAs cells were cultured for 72 h before treated with CD95LT4 (10 ng/ml and 20 ng/ml), migration was analyzed 24 h after treatment with a two dimensional migration assay. The knockdown was controlled by quantitative real-time PCR and FACS. […] Migration was measured 24 h after treatment in a two dimensional migration assay.

Compound: APG101: fusion protein of the extracellular domain of the human CD95-receptor with human Fc, SEQ ID NO:1
- antagonism of CD95L-T4-induced apoptosis [1]: antagonizes the apoptosis inducing effect of CD95L; also recorded: antagonized by APG101 in a dose dependent manner
- antagonism of CD95L-T4-induced apoptosis ([1]; listed as AP-G101): antagonizes the apoptosis inducing activity of CD95L-T4

Compound: COC(=O)C[C@H](NC(=O)[C@H](C)NC(=O)[C@@H](NC(=O)OCc1ccccc1)C(C)C)C(=O)CF [zVAD-fmk] (Cbz-Val-Ala-Asp(OMe)-CH2F)
- blockade of CD95-induced GSK3β phosphorylation/inhibition [2]: did not prevent GSK3β phosphorylation; also recorded: did not interfere with α-Apo-1 (2 μg/ml)-induced inhibition of GSK3β
- blockade of CD95-induced GSK3β phosphorylation/inhibition ([2]; listed as zVAD.fmk): did not block ser9 phosphorylation of GSK3β

Compound: COc1cccc(-c2cc(=O)c3ccccc3o2)c1N [PD98059]
- blockade of CD95-induced migration [3]: did not interfere with CD95-induced migration
- blockade of CD95-induced migration ([3]; listed as PD 98059): did not interfere with the CD95-induced migration
